From patent US20220304941A1, “COMPOSITION FOR PREVENTING OR TREATING ORAL DISEASES” (TECOZYME INC, priority 2019, published 2022)

Key:
[1] = test system: bacteria in plaque; assay: Antibacterial test of 1,2,3-butanetriol: growth of cultured plaque bacteria, absorption at 600 nm; format: cell-based, oral bacteria; details: FIG. 2
Experimental: Subsequently, to examine the effect of inhibiting bacterial activity in plaque, bacterial strains were prepared as follows. First, plaque was collected from three research participants, and was cultured in a BHI medium (Bovine Heart Infusion 4 g/160 ml distilled water-DDW) with 1 wt. % sucrose added for 24 hours. From the above cultured strain, gDNA was extracted, and the bacteria were identified through PCR. BHI medium (Bovine Heart Infusion 4 g/160 ml distilled water-DDW) with 1wt. % sucrose added was prepared and sterilized in a high-temperature and high-pressure autoclave. Then, 1,2, 3-butanetriol (1,2,3-BT) was dispensed to each concentration, and a 96-well microplate containing 180 μl of the culture solution was prepared. Here, 20 μl of the culture solution in which the bacteria in plaque prepared above was proliferated was dispensed per well. This microplate was placed in a Biotek Synergy 2 microplate reader, the temperature was adjusted to 37° C., and the absorption rate was measured at 600 nm.

[2] = test system: human fibroblasts; assay: Cytotoxicity test: culture viability of human fibroblasts (Cell Counting Kit-8); format: cell-based; details: 48 hours treatment, FIG. 1
Experimental: First, to examine the biotoxicity of 1,2,3-butanetriol, culture survival experiments of human fibroblasts according to the concentration change of 1,2,3-butanetriol were conducted.
The initial seeding density was 5000 cells/well based on 96 wells, and the culture conditions were as follows:
Dulbecco's Modified Eagle Medium (DMEM)+Fetal Bovine Serum (FBS) 10%; 37° C., 5% CO2; and 12 hours after seeding, 1,2,3-butanetriol was treated at different concentrations to determine cytotoxicity, and after 48 hours of 1,2,3-butanetriol treatment, Dojindo Cell Counting Kit-8 was dispensed at a rate of 10 μl per well and incubated at 37° C. for 2 hours, then cell viability was measured at 450 nm Absorbance.
FIG. 1 is a graph illustrating the culture viability of human fibroblasts according to the concentration change of 1, 2,3-butanetriol, and the horizontal axis of FIG. 1 indicates the concentration of the treated 1,2,3-butanetriol in an mM unit.

[3] = test system: bacteria in plaque (species of Table 1); assay: Antibacterial test of 1,2,3-butanetriol: gDNA extraction and PCR per bacterial species; format: cell-based, oral bacteria; details: PCR of gDNA after butanetriol treatment, FIG. 3
Description: From the above cultured strain, gDNA was extracted, and the bacteria were identified through PCR. [table] Separately from the absorption rate measurement, gDNA was extracted from the well microplate after treatment with butanetriol, and the results identified by PCR are shown in FIG. 3.

CC(O)C(O)CO (racemic) [1,2,3-butanetriol]
effect of inhibiting bacterial growth (at least) ([1]; 12 hours after culturing, compared to no 1,2,3-butanetriol treatment, lowest effect): at least 10% | effect of inhibiting bacterial growth (maximum) ([1]; 12 hours after culturing, compared to no 1,2,3-butanetriol treatment, maximum effect): ≥ 50% | bacterial growth ([1]; plaque bacteria in BHI medium with 1 wt. % sucrose, 37° C.): significantly effectively inhibited | cell viability ([2]; concentration of about 12.5 mM or less): not significantly reduced | cell viability ([2]; concentration of about 25 mM): about 50% | growth inhibitory effect on each bacterial species [3]: clearly identified
